Source: ChEMBL document CHEMBL1201862, “PubChem BioAssay data set” (2004)
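All cell lines were grown in 96-well plates and treated with compound for 48 hours. GI50: concentration for 50% inhibition of growth.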 The source made the active and inactive calls. Cut-off read from the data, not from the text of the source: active = GI50 up to about 1.1 µM and inactive = higher.

What was measured:
Assay in all cases: inhibition of tumour cell growth, NCI panel, 48 h
[1] = system: LOX IMVI
[2] = system: EKVX
[3] = system: MCF7
[4] = system: COLO 205
[5] = system: CAKI-1
[6] = system: SF-268
[7] = system: SR
[8] = system: SK-MEL-5
[9] = system: U-251
[10] = system: SK-MEL-2
[11] = system: UO-31
[12] = system: Hs-578T
[13] = system: OVCAR-4
[14] = system: UACC-62
[15] = system: RPMI-8226
[16] = system: MDA-MB-231
[17] = system: HCT-15
[18] = system: Malme-3M
[19] = system: RXF 393
[20] = system: A498

Row | Compound | GI50 [1] | GI50 [2] | GI50 [3] | GI50 [4] | GI50 [5] | GI50 [6] | GI50 [7] | GI50 [8] | GI50 [9] | GI50 [10] | GI50 [11] | GI50 [12] | GI50 [13] | GI50 [14] | GI50 [15] | GI50 [16] | GI50 [17] | GI50 [18] | GI50 [19] | GI50 [20]
1 | CC(=O)c1c2c(cc3c1CC1(C3)Cc3cc4c(c(C(=O)O)c3C1)CCCC4)CCCC2.CC(N)c1ccccc1 (centres undefined) | 35.5 µM (inactive) | 26.4 µM (inactive) | 29.1 µM (inactive) | 27.9 µM (inactive) | 33.4 µM (inactive) | 38.7 µM (inactive) | 20.3 µM (inactive) | 22.9 µM (inactive) | 26.1 µM (inactive) | 28.1 µM (inactive) | 18.6 µM (inactive) | 36.6 µM (inactive) | 37 µM (inactive) | 30.7 µM (inactive) | 31.6 µM (inactive) | 10 µM (inactive) | 33.7 µM | 33.4 µM (inactive) |  | 
2 | COc1ccccc1/C=C\C(=O)C1COCN1 (centres undefined) | 4.83 µM (inactive) | 19.4 µM (inactive) | 5.53 µM (inactive) | 6.35 µM (inactive) | 18.3 µM (inactive) | 21 µM (inactive) | 1.95 µM (inactive) | 10.6 µM (inactive) | 11.1 µM (inactive) | 21.3 µM (inactive) | 16.4 µM (inactive) | 16.3 µM (inactive) | 16.3 µM (inactive) | 14.5 µM (inactive) | 2.24 µM (inactive) | 17.6 µM (inactive) | 14.7 µM | 19.3 µM (inactive) | 21 µM (inactive) | 
3 | N#CC1=C2Sc3ccccc3N2[C@H](c2ccccc2)[C@H]2COC(=O)[C@@H]12 | 26.3 µM (inactive) | > 100 µM (inactive) | 31 µM (inactive) | > 100 µM (inactive) | 17.5 µM (inactive) | 17.1 µM (inactive) |  | > 100 µM (inactive) | 45.2 µM (inactive) | 48 µM (inactive) | > 100 µM (inactive) | > 100 µM (inactive) | > 100 µM (inactive) | 67.1 µM (inactive) | 22.6 µM (inactive) | > 100 µM (inactive) | > 100 µM | 16.7 µM (inactive) | 70.3 µM (inactive) | 54.8 µM (inactive)
4 | COc1ccc(/C=C2\N=C(SC)NC2=O)cc1 | > 100 µM (inactive) | 30.4 µM (inactive) | 70.8 µM (inactive) | 98.6 µM (inactive) | 56 µM (inactive) | 58.6 µM (inactive) |  | 53.6 µM (inactive) | 90.6 µM (inactive) | > 100 µM (inactive) | 21.2 µM (inactive) | 64.6 µM (inactive) | 71.1 µM (inactive) | 70.3 µM (inactive) | 61.8 µM (inactive) | 59.6 µM (inactive) | 89.7 µM | > 100 µM (inactive) | 67.3 µM (inactive) | 
5 | CC(=O)C(C(=O)c1ccc(C)cc1)[C@@H]1OC(C)(C)O[C@@H]1[C@H]1COC(C)(C)O1 (some centres undefined) | 6.43 µM (inactive) | 23.9 µM (inactive) | 3.48 µM (inactive) | 18.1 µM (inactive) | 21.5 µM (inactive) | 9.23 µM (inactive) |  | 12.1 µM (inactive) | 6.41 µM (inactive) | 8.99 µM (inactive) | 12.7 µM (inactive) | 3.84 µM (inactive) | 4 µM (inactive) | 10.9 µM (inactive) | 2.36 µM (inactive) | 10.5 µM (inactive) | 8.3 µM | 15.9 µM (inactive) | 9.62 µM (inactive) | 36.9 µM (inactive)
6 | O=c1c(-c2ccccc2Cl)coc2cc(F)ccc12 | 13.2 µM (inactive) | 52.6 µM (inactive) | 21.7 µM (inactive) | 44.7 µM (inactive) | 29.1 µM (inactive) | 40.7 µM (inactive) |  | 27.3 µM (inactive) | 10.2 µM (inactive) | 66.4 µM (inactive) | 20.4 µM (inactive) | 28.4 µM (inactive) | > 100 µM (inactive) | 18.2 µM (inactive) |  | 19.4 µM (inactive) | 31.8 µM |  | 22.1 µM (inactive) | 7.67 µM (inactive)
7 | CC(C)=C/C(CC(O)(C(F)(F)F)C(F)(F)F)=N\O | > 100 µM (inactive) | > 100 µM (inactive) | > 100 µM (inactive) | > 100 µM (inactive) |  | > 100 µM (inactive) | > 100 µM (inactive) | > 100 µM (inactive) | > 100 µM (inactive) |  | > 100 µM (inactive) | > 100 µM (inactive) | > 100 µM (inactive) | > 100 µM (inactive) | > 100 µM (inactive) | > 100 µM (inactive) | > 100 µM | > 100 µM (inactive) | > 100 µM (inactive) | 50.9 µM (inactive)
8 | COc1ccc(-c2csc(Cc3nc4c(Br)cc(Br)cc4c(=O)n3-c3ccc(OC)cc3)n2)cc1 | > 100 µM (inactive) | > 100 µM (inactive) | 63.1 µM (inactive) | 34.8 µM (inactive) | 94.4 µM (inactive) |  |  | 20.3 µM (inactive) | 30.3 µM (inactive) | 48 µM (inactive) | 35.2 µM (inactive) | > 100 µM (inactive) | > 100 µM (inactive) | 53.3 µM (inactive) |  | 45.7 µM (inactive) | 24 µM |  | > 100 µM (inactive) | 45.3 µM (inactive)
